Where two headings read alike, the source gives them in different places.
Assays:
[1] = test system: IL-4 stimulated expression of CD23 in human Ramos B cells (JAK-1 and JAK-3); assay: Assay for Ramos B-Cell Line Stimulated with IL-4 (CD23 upregulation, FACS); format: cell-based; details: Ramos B cells stimulated with IL-4, CD23 expression by FACS, read-out: IC50, Example 41
In short: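 Read-out: anti-CD23-PE flow cytometry on Ramos B cells, giving IC50. Cells (5×10^4 per point, RPMI + 5% serum) get compound or DMSO for 1 h at 37 °C, then IL-4 50 units/mL final for 20-24 h.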

[2] = test system: Primary human T-cells; assay: Primary Human T-Cell Proliferation Assay Stimulated with IL-2 (CellTiter-Glo); format: cell-based; details: primary human T-cells stimulated with IL-2, proliferation, read-out: IC50, Example 42
In short: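 IC50 derived from CellTiter-Glo ATP signal after 72 hours of IL-2-driven proliferation at 37° C. Cells: primary human T-cells from blood, stimulated beforehand 3-4 days on anti-CD3/anti-CD28 with IL-2, then rested from IL-2 before compound exposure in duplicate; IL-2-free wells served as unstimulated control.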

## CCNC(=O)NCCc1ccc(Nc2nc(Nc3cccc(S(N)(=O)=O)c3)ncc2F)cc1 [III-123, N2-(3-aminosulfonyl)phenyl-N4-[4-(2-ethylaminocarbonylamino)ethyl]phenyl-5-fluoro-2,4-pyrimidinediamine]
[1]
  IC50: 0.173 µM
[2]
  IC50: 1.39 µM

## CCCN(Cc1ccc(Nc2nc(Nc3cccc(S(N)(=O)=O)c3)ncc2F)cc1)C(N)=O [III-126, N2-(3-aminosulfonyl)phenyl-N4-[4-(N-carbamoyl-N-propyl)aminomethyl]phenyl-5-fluoro-2,4-pyrimidinediamine]
[1]
  IC50: 0.197 µM
[2]
  IC50: 0.47 µM

## CCCN(Cc1ccc(Nc2nc(Nc3ccc(C)c(S(N)(=O)=O)c3)ncc2F)cc1)C(N)=O [III-127, N2-(3-aminosulfonyl-4-methyl)phenyl-N4-[4-(N-carbamoyl-N-propyl)aminomethyl]phenyl-5-fluoro-2,4-pyrimidinediamine]
[1]
  IC50: 0.198 µM
[2]
  IC50: 0.612 µM

## NS(=O)(=O)c1ccc(Nc2ncc(F)c(Nc3ccc(-c4cnco4)cc3)n2)cc1 [IV-8, N2-(4-Aminosulfonylphenyl)-5-fluoro-N4-[4-(1,3-oxazol-5-yl)phenyl]-2,4-pyrimidinediamine]
[1]; Homo sapiens, Ramos
  IC50: 0.166 µM
[2]; Homo sapiens, T-cell
  IC50: 0.627 µM

## CN(C)S(=O)(=O)c1cccc(Nc2nc(Nc3cccc(S(N)(=O)=O)c3)ncc2F)c1 [IV-9, N2-(3-Aminosulfonylphenyl)-5-fluoro-N4-[3-(N,N-dimethylaminosulfonyl)phenyl]-2,4-pyrimidinediamine]
[1]; Homo sapiens, Ramos
  IC50: 0.19 µM
[2]; Homo sapiens, T-cell
  IC50: 1 µM

## Cc1ccc(Nc2ncc(F)c(Nc3cccc(S(=O)(=O)N(C)C)c3)n2)cc1S(N)(=O)=O [IV-10, N2-(3-Aminosulfonyl-4-methylphenyl)-5-fluoro-N4-[3-(N,N-dimethylaminosulfonyl)phenyl]-2,4-pyrimidinediamine]
[1]; Homo sapiens, Ramos
  IC50: 0.135 µM
[2]; Homo sapiens, T-cell
  IC50: 0.714 µM

## CNS(=O)(=O)c1cccc(Nc2nc(Nc3ccc(C)c(S(N)(=O)=O)c3)ncc2F)c1 [IV-12, N2-(3-Aminosulfonyl-4-methylphenyl)-5-fluoro-N4-[3-(N-methylaminosulfonyl)phenyl]-2,4-pyrimidinediamine]
[1]; Homo sapiens, Ramos
  IC50: 0.257 µM
[2]; Homo sapiens, T-cell
  IC50: 1.22 µM

## N#Cc1cc2cc(Nc3nc(Nc4ccc(Cl)c(S(N)(=O)=O)c4)ncc3F)ccc2o1 [IX-21]
[1]
  IC50: 0.271 µM
[2]
  IC50: 2.74 µM

## CC(C)c1ccc(Nc2ncc(F)c(Nc3ccc4oc(C#N)cc4c3)n2)cc1S(N)(=O)=O [IX-22, N2-(3-Aminosulfonyl-4-iso-propylphenyl)-N4-(2-cyanobenzofuran-5-yl)-5-fluoro-2,4-pyrimidinediamine]
[1]; Homo sapiens, Ramos
  IC50: 0.295 µM
[2]; Homo sapiens, T-cell
  IC50: 1.59 µM

## CC(=O)N1CCN(C(=O)c2ccc(Nc3nc(Nc4ccc(C)c(S(N)(=O)=O)c4)ncc3F)cc2)CC1 [IX-24, N4-[4-(1-Acetyl-4-piperizinyl)carbonylphenyl]-N2-(3-Aminosulfonyl-4-methylphenyl)-5-fluoro-2,4-pyrimidinediamine]
[1]
  IC50: 6.33 µM
[2]
  IC50: 38.4 µM

## Cc1ccc(Nc2ncc(F)c(Nc3ccc(C(=O)N4CCN(C)CC4)cc3)n2)cc1S(N)(=O)=O [IX-27, N2-(3-Aminosulfonyl-4-methylphenyl)-5-fluoro-N4-[4-(4-methylpiperazin-1-ylcarbonyl)phenyl]-2,4-pyrimidinediamine]
[1]; Homo sapiens, Ramos
  IC50: 1.38 µM
[2]; Homo sapiens, T-cell
  IC50: 7.63 µM

## CN1CCN(C(=O)c2ccc(Nc3nc(Nc4cccc(S(N)(=O)=O)c4)ncc3F)cc2)CC1 [IX-28, N2-(3-Aminosulfonylphenyl)-5-fluoro-N4-[4-(4-methylpiperazin-1-ylcarbonyl)phenyl]-2,4-pyrimidinediamine]
[1]; Homo sapiens, Ramos
  IC50: 1.66 µM
[2]; Homo sapiens, T-cell
  IC50: 10.1 µM

## Cc1ccc(Nc2ncc(F)c(Nc3ccc(C(=O)N4CCN(S(C)(=O)=O)CC4)cc3)n2)cc1S(N)(=O)=O [IX-30, N2-(3-Aminosulfonyl-4-methylphenyl)-5-fluoro-N4-[4-(1-methanesulfonyl-4-piperizinyl)carbonylphenyl]-2,4-pyrimidinediamine]
[1]
  IC50: 1.94 µM
[2]
  IC50: 6.8 µM

Source: patent US11827628B2, “Compositions and methods for inhibition of the JAK pathway” (Rigel Pharmaceuticals, Inc., priority 2005, dated 2023)
